US8669289B2, “Methods and compositions relating to hematologic malignancies” (The Jackson Laboratory, priority 2009, dated 2014)
“Also recorded” adds a separate entry of the source.

Assays:
Alox5 gene = test: Gene expression in LSCs of CML mice with imatinib treatment (DNA microarray, RT-PCR); format: in vivo; settings: imatinib 150 mg/kg every 4 hours, 5 doses from day 13 post BMT
Excerpt: (§1) Leukemic stem cells in CML (CML-SCs) are insensitive to BCR-ABL kinase inhibitors (Graham et al., 2002). A bone marrow transplantation (BMT) mouse model of CML is used as an assay system, in which bone marrow cells from donor mice pretreated with 5-fluorouracil (5-FU) and transduced with BCR-ABL result in development of CML in recipient mice (Li et al., 1999). Bone marrow cells from C57BL/6 (B6) mice are transduced with retrovirus containing BCR-ABL/GFP or GFP alone under conditions for induction of CML, followed by transplantation of the transduced cells into B6 recipient mice.
Fourteen days after BMT, bone marrow cells are isolated and subsequently sorted by FACS for LSCs (GFP^+Lin^−c-Kit^+Sca-1^+) (Hu et al., 2006). Total RNA is isolated from these BCR-ABL-expressing LSCs or from the GFP^+Lin^−c-Kit^+Sca-1^+ cells that only express GFP, and DNA microarray analysis is carried out to compare gene expression between BCR-ABL-expressing and non-BCR-ABL expressing Lin^−c-Kit^+Sca-1^+ cells.

[1] = tested on: GFP+Gr-1+ myeloid leukemia cells; test: FACS of GFP+Gr-1+ myeloid leukemia cells in peripheral blood and bone marrow of treated CML mice; format: in vivo
Excerpt: as §1
(§2) Water is used as placebo.

[2] = tested on: mice with CML induced by BCR-ABL-T315I; test: Survival of mice with CML induced by BCR-ABL-T315I; format: in vivo; settings: zileuton n=11 vs placebo n=6
LSCs = test: FACS of LT-LSCs and ST-LSCs/MPP cells in bone marrow of zileuton-treated CML mice; format: in vivo; settings: 300 mg/kg twice a day from day 8; days 20 and 90 post BMT
Method: Cell populations affected by Alox5 deficiency are determined using FACS analysis. BCR-ABL-transduced Alox5^−/− bone marrow cells are transplanted into recipient mice (n=4) to induce CML, and bone marrow cells from these mice are analyzed by FACS for percentages of total HSCs (Lin^−c-Kit^+Sca-1^+), LT-HSCs (Lin^−c-Kit^+Sca-1^+CD34^−), and ST-HSCs/MPP cells (Lin^−c-Kit^+Sca-1^+CD34^+).
(§3) Recipients of BCR-ABL-transduced wild type bone marrow cells are treated with zileuton (300 mg/kg of body weight, twice a day) beginning at 8 days after BMT. […] At days 20 and 90 post BMT (induction of CML), FACS analysis is performed.

normal HSCs = test: FACS of normal HSCs in zileuton-treated mice; format: in vivo
Method: as §3, with “performed. […] No suppression of normal HSCs is found in placebo- or zileuton-treated mice receiving wild type donor bone marrow cells transduced with MSCV-IRES-GFP retrovirus.” for “performed.”

white blood cells = test: Peripheral white blood cell counts of CML mice; format: in vivo; settings: 14 days after bone marrow transplantation
Excerpt: as §2
The white blood cells are collected from the CML induced mice 14 days after bone marrow transplantation.

[3] = tested on: mice with BCR-ABL-induced CML; test: Leukemia cell infiltration to lungs and spleens of CML mice; format: in vivo; settings: zileuton-treated CML mice
[4] = tested on: K562 myeloid leukemia cells; test: K562 cell proliferation, trypan blue live cell count; format: cell-based, human
Method: The cells are treated with curcumin at 5 different concentrations (20 μM; 40 μM; 60 μM; 80 μM; 100 μM) for 48, 72 and 96 hours. The cells are stained with trypan blue and counted. The total cell number of live cells is shown in the graph in FIG. 27. […] K562 is a human Bcr-Abl positive CML cell line, which was isolated from a CML patient in blast crisis (Koeffler, H. P., and Golde, D. W. 1980. Human myeloid leukemia cell lines: a review. […] This cell line is commonly used for screening compounds to detect anti-proliferative activities of leukemia cells and for the pharmacology and toxicology studies required for IND (Investigational New Drug) application. […] The cells are treated with zileuton at 7 different concentrations (10 μ[…]) for 48, and 72 hours. The cells are stained with trypan blue and counted. The total cell number of live cells following these treatments is shown in the graph in FIG. 28.

[5] = tested on: leukemia stem cells (CD34+CD38-); test: Human CML CD34+CD38- cells in patient bone marrow culture, FACS; format: cell-based; settings: 48 h, untreated 1.4%
Method: Bone marrow was isolated from a CML patient. The cells were cultured in serum-free media (SFM: Iscove modified Dulbecco medium (Sigma-Aldrich) supplemented with a serum substitute bovine serum albumin[…][…], BIT9500 from […] Technologies), five growth factors (5GF: cocktail of 20 ng/mL recombinant human IL-3 (rhIL-3), 20 ng/mL rhIL-6, 100 ng/mL rhFlt3-ligand, 100 ng/mL rh stem cell factor, available from […] Technologies)) and zileuton at two doses, 300 μM or 600 μM, for 48 hours. The cells were analyzed by FACS and the percentages of leukemia stem cells (CD34+CD38-) were determined using anti CD34 and anti CD38 antibodies.

Alox5 = target: T1, Alox5 (Mus musculus, UniProt P48999); test: Plasma level of LTB4 in CML mice; settings: compared to placebo-treated CML mice
T1 sequence (P48999 1-674): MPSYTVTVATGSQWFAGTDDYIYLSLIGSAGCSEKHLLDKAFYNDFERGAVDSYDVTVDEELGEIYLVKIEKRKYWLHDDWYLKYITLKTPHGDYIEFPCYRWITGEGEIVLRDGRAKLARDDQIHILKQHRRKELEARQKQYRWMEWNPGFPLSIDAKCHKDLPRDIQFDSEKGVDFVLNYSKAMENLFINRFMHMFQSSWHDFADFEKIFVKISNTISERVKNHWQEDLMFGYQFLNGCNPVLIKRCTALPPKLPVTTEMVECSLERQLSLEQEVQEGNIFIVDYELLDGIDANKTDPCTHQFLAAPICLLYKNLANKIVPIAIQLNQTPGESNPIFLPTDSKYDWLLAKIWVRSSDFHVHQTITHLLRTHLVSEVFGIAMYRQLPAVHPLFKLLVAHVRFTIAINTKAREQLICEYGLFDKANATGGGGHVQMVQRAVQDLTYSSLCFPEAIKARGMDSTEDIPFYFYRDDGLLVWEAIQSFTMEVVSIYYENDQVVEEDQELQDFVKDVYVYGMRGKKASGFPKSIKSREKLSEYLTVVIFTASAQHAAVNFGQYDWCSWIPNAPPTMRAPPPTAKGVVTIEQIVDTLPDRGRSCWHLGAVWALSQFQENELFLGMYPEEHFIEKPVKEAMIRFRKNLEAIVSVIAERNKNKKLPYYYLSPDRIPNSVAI

[6] = tested on: leukemia cells, LSCs, LT-LSC and ST-LSC+MPP; test: In vitro culture of bone marrow cells of CML mice with curcumin, live cell numbers by FACS; format: cell-based; settings: 20 μM, 6 days, vs buffer control
Method: Bone marrow cells are isolated from 6- to 10-week-old C57BL/6 (B6) mice induced with BCR-ABL, for example using the retroviral vector MSCV-IRES-eGFP carrying the p210 BCR-ABL cDNA to produce CML mice. Total bone marrow cells were cultured in vitro in the presence of StemSpan serum-free medium (StemCell Technologies, Vancouver, BC) supplemented with 10 μg/mL heparin (Sigma, St Louis, Mo.), 10 ng/mL mouse SCF, 20 ng/mL mouse TPO, 20 ng/mL mouse IGF-2 (all from R&D Systems, Minneapolis, Minn.), and 10 ng/mL human FGF-1 (Invitrogen, Carlsbad, Calif.). Half of the medium was replaced after 3 days with fresh medium. (Peng et al Blood, 15 Jul. 2007, Vol. 110, No. 2, pp. 678-685; Zhang and Lodish Blood, 1 Jun. 2005, Vol. 105, No. 11, pp. 4314-4320; de Haan et al. Dev Cell 2003; 4:241-251). The cells were cultured for 6 days in the presence or absence of the Alox5 inhibitor, curcumin at (1,7-Bis(4-hydroxy-3-methoxyphenyl)-1,6-heptadiene-3,5-dione; Calbiochem cat. no. 239802) a concentration of 20 μM in vitro (5×10^6 cells/6 cm tissue culture plate) at 37° C. in a 5% CO2 tissue culture incubator. […] Total live cell numbers were measured for leukemia cells, leukemia stem cells, long-term LSC (LT-LSC) and short-term LSCs with multipotent progenitor cells (ST-LSC+MPP). […]

With Cc1ccc(NC(=O)c2ccc(CN3CCN(C)CC3)cc2)cc1Nc1nccc(-c2cccnc2)n1 [Imatinib, 4-[(4-methylpiperazin-1-yl)methyl]-N-[4-methyl-3-[(4-pyridin-3-ylpyrimidin-2-yl)amino]-phenyl]-benzamide] the “Up-regulation of the Alox5 gene by BCR-ABL in LSCs” value (Alox5 gene) was “not abolished; also recorded: not prevented”.
With CC(c1cc2ccccc2s1)N(O)C(N)=O (stereo not shown) [Zileuton, N-[1-(1-benzothien-2-yl)ethyl]-N-hydroxyurea] the “Percentage of GFP+Gr-1+ myeloid leukemia cells in the peripheral blood of CML mice” value (shortened to “Percentage … of CML mice”) ([1]; Day 11) was 48.3%, the “Percentage … of CML mice” value ([1]; Day 14) was 49.9% and the “Percentage … of CML mice” value ([1]; Day 21) was 62.9%. For the same compound, the “Percentage … of CML mice” value ([1]; Day 28) was 61.4%, the “Percentage … of CML mice” value ([1]; Day 35) was 39.7% and the “Percentage … of CML mice” value ([1]; Day 42) was 29.4%. The “Percentage … of CML mice” value ([1]; Day 60) was 5.1%, the “GFP+Gr-1+ myeloid leukemia cells in bone marrow” value ([1]; bone marrow, during the treatment) was “drop to low levels” and the “GFP+Gr-1+ cells in peripheral blood over time” value ([1]; from 11 days to 8 weeks) was “gradually decrease with time”. For the same compound, the “Survival of mice with CML induced by BCR-ABL-T315I” value [2] was “prolongs survival”, the “Ratio of percentage of LT-LSCs to percentage of ST-LSCs/MPP cells” value (LSCs) was “increased with treatment” and the “Differentiation of GFP- LT-HSCs in the same animals” value (normal HSCs; CML mice, 300 mg/kg twice a day) was “did not lead to blocked differentiation”. The “Numbers of GFP+Lin-c-Kit+Sca-1+ cells in bone marrow or spleens” value (normal HSCs; mice receiving MSCV-IRES-GFP-transduced wild type bone marrow, day 14 after BMT) was “does not result in a reduction”, the “White blood cell counts” value (white blood cells) was “reduction of white blood cell counts less dramatically than does imatinib treatment” and the “Leukemia cell infiltration to the lungs and the spleens” value [3] was “less severe leukemia cell infiltration”. For the same compound, the “Number of live K562 cells” value ([4]; 10-400 μM, 48 hours) was “reduces the number of live cells in the 200 μM and 400 μM groups”, the “Number of live K562 cells” value ([4]; 10-400 μM, 72 hours) was “shows an effect at all concentrations” and the “Percentage of leukemia stem cells (CD34+CD38-)” value ([5]; 300 μM) was 1.1%. For the same compound, the “Percentage of leukemia stem cells (CD34+CD38-)” value ([5]; 600 μM) was 0.9%, the “Plasma level of LTB4” value (Alox5) was “decreased” and the “Plasma level of LTB4” value (Alox5; listed as zileuton) was “reduction”.
COc1cc(C=CC(=O)CC(=O)C=Cc2ccc(O)c(OC)c2)ccc1O [Curcumin, 1,7-Bis(4-hydroxy-3-methoxyphenyl)-1,6-heptadiene-3,5-dione] was tested, and the “Total live cell number of leukemia cells, LSCs, LT-LSC and ST-LSC+MPP” value [6] was “reduced”, the “Number of live K562 cells” value ([4]; 20-100 μM, 72 or 96 hours) was “reduces the number of live cells in all groups” and the “Concentration at which an effect on live K562 cell number is shown” value ([4]; 48 hours) was no less than 40 µM.
